Data on one compound can be found in patent US20260097004A1, “PHARMACEUTICAL COMPOSITION FOR TREATING MAST CELL-MEDIATED INFLAMMATORY DISEASES” (priority 2022, published 2026).

The test system of data set [1] is LAD2 mast cells. The data set is described as follows: β-hexosaminidase assay of mast cell degranulation stimulated by SP. The class given is cell-based. Conditions: SP stimulating experiment, FIG. 1. How it is done:
An experimental method using a β-hexosaminidase assay comprises the following steps: • 1. a PNAG/HEPES buffer/0.1% Triton-100/glycine solution was prepared at a normal temperature; • 2. LAD2 cell was taken out from an incubator at 37° C. and cell count was read, and then an appropriate amount of cell suspension was taken according to experimental cell requirements (estimated based on 5000-10000/well); • 3. the LAD2 cell suspension was centrifuged for 5 min on a centrifuge at 4° C. at […], and then supernatant was discarded; • 4. cells were evenly mixed in the solution after HEPES buffer was added; • 5. the cell suspension was transferred to a 96-well plate, with 80 ul per well; • 6. a to-be-tested drug Atovaquone was added to a corresponding position according to experiment design, the positions of a positive control SP (neuropeptide substance P), a negative control QWF (MRGPRX2 receptor antagonist) and a blank control were reserved, and each drug was administrated for three repetitions; • 7. the cells were co-incubated with the drug for 30 min; • 8. […]
Detection of m Absorbance
• 12. the degranulation percentage of mast cells was calculated.
According to a formula: degranulation percentage-2×absorbance of supernatant plate/(absorbance of supernatant plate+[…]absorbance of cell lysis plate)×100%

The subject of data set [2] is LAD2 cells. In words: Intracellular calcium ion flow experiment (calcium imaging, Fluo-3). The class given is cell-based. The following applies: Atovaquone at different concentrations (0, 1, 10, 100 nM and 1 μM), incubation 30 min; FIG. 3. The method, then: (§1) An incubation buffer was composed of: 0.5 μl of Fluo-3, 2 μl of Pluronic F-127 and 997.5 μl of CIB (calcium imaging buffer: 125 mM NaCl, 3 mM KCl, 2.5 mM CaCl2, 0.6 mM MgCl2, 10 mM HEPES, 20 mM glucose, 1.2 mM NaHCO3 and 20 mM sucrose, and pH=7.4). Different concentrations (0, 1, 10, 100 nM and 1 μM) of Atovaquone were prepared in the incubation buffer, and an incubation buffer solution without Atovaquone was used as a negative control. LAD2 cells were washed twice with CIB, and then a desired incubation buffer solution was added. After incubation for 30 min, the cells were washed twice with CIB, and then inoculated into a 96-well plate for calcium imaging. For calcium imaging, the cells were magnified 200× and a photo was obtained per second under blue light. After a substance was injected, the cells were confirmed as being responsive if [Ca^2+] rose by at least 50%.
On the technique in general: Calcium flux is commonly read through the fluorescence of an indicator in the cells.

In data set [3] the target is T1, MrgA1 (Mus musculus, UniProt Q91WW5).
T1 sequence (Q91WW5 1-304): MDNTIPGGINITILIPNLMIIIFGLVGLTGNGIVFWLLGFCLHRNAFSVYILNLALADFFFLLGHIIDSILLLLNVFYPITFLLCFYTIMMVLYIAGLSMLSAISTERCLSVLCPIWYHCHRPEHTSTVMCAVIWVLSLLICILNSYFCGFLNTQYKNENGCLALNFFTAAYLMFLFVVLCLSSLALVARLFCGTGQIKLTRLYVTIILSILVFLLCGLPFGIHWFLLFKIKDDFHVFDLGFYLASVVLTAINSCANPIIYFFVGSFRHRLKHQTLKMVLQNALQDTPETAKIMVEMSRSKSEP
In words: Calcium ion flow when substance P acts on MrgA1. Conditions: substance P 10 μM acted on MrgA1; cells with vs without Atovaquone; FIG. 2. The class given is cell-based. The method, then:
as §1
(§2) FIG. 2 is a dynamic observation graph showing a calcium ion flow change when a substance P acted on different receptors, i.e., a schematic representation of the substance P acting on MrgA1, MrgX2 and NKIR (5 nM acted on NKIR, 50 nM acted on MrgX2 and 10 μM acted on MrgA1). This image set was photographed every 5 s from left to right for 120 s. In each group of graphs, a column represented cells with Atovaquone, the next column represented cells without Atovaquone.

The target in data set [4] is NKIR (Homo sapiens, UniProt P25103). In words: Calcium ion flow when substance P acts on NKIR. It counts as cell-based. Conditions: substance P 5 nM acted on NKIR; cells with vs without Atovaquone; FIG. 2. The method, then: as §1, §2
For data set [5] the following is noted: cited from earlier work.

Molecules are shown by their SMILES.

Sequence of NKIR (P25103 whole entry): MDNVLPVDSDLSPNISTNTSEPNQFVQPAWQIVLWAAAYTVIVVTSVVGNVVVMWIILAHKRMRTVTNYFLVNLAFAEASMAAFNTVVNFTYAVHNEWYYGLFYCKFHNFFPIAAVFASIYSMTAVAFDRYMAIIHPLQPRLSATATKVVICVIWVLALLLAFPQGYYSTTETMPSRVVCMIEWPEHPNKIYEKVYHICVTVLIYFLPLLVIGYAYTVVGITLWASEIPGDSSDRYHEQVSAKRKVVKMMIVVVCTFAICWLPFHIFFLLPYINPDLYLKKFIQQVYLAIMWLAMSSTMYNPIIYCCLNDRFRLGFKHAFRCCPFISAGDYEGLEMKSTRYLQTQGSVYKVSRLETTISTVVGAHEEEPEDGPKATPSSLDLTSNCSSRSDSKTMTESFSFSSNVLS

Turning to `O=C1C(O)=C([C@H]2CC[C@H](c3ccc(Cl)cc3)CC2)C(=O)c2ccccc21` [Atovaquone], the “inhibition of LAD2 mast cell degranulation compared with QWF” value in data set [1] is given as “far superior to QWF”. Besides, in data set [1] (cells co-incubated with drug 30 min, then SP 30 min), the “degranulation of LAD2 mast cells (degranulation percentage)” value is recorded as “obviously improved”. For the same compound, in data set [2], the calcium ion flow result is listed as “reduction in calcium ion flow”. Also, in data set [3], the “effect on MrgA1 mediated calcium ion flow” value was “inferior to that on MrgX2”. Besides, the “effect on NKIR mediated calcium ion flow” value in data set [4] was “inferior to that on MrgX2”. The drug dependence result in data set [5] (after long-term use) was “no significant drug dependence phenomenon”. Besides, the side effects entry in data set [5] (users in a population) was “low side effect characteristics”.
